Test results: US6812229B1, “Carbamate derivative and agricultural/horticultural fungicide” (Kumiai Chemical Industry Co., Ltd., priority 1999, dated 2004)

Tested on: Septoria nodorum
Assay: Test for preventive effect on Septoria leaf blotch of wheat
Type: in vivo
Settings: wheat seedlings (Norin-61-go), two-leaf stage, 50 ppm active ingredient, 10 ml per pot, evaluated 10 days after inoculation with Septoria nodorum
From the text: [table] 10 Wheat seeds (variety: Norin-61-go) were sown in each plastic pot having a diameter of 6 cm, and grown in a greenhouse. […] Then, the seedlings were inoculated with Septoria nodorum […] controlled in a greenhouse. 10 Days after the inoculation, the total diseased area of the first leaves in each pot was observed and evaluated on the basis of the standards shown in Table 21.

| SMILES | Evaluation (total diseased area of the first leaves) |
| --- | --- |
| COC(=O)NCc1cc(C(C)=NOCc2cccc(C)n2)ccc1Cl (single isomer, unassigned) [A-286] | A (No diseased area) |
| COC(=O)NCc1cc(C(C#N)=NOCc2ccccc2)ccc1Cl [A-7] | A (No diseased area) |
| COC(=O)NCc1cc(C(C#N)=NOCc2ccccc2Cl)ccc1Cl [A-8] | B (Diseased area of less than 5%) |
| COC(=O)NCc1cc(C(C#N)=NOCc2ccccc2)ccc1C [A-20] | B (Diseased area of less than 5%) |
| COC(=O)NCc1cc(C(C#N)=NOCc2ccccc2Cl)ccc1C [A-21] | A (No diseased area) |
| CCCCON=C(C)c1ccc(Cl)c(CNC(=O)OC)c1 [A-52] | A (No diseased area) |
| CCC(C)ON=C(C)c1ccc(Cl)c(CNC(=O)OC)c1 (stereo not drawn) [A-53] | A (No diseased area) |
| COC(=O)NCc1cc(C(C)=NOCC(C)C)ccc1Cl [A-54] | A (No diseased area) |
| COC(=O)NCc1cc(C(C)=NOCC2CC2)ccc1Cl [A-56] | B (Diseased area of less than 5%) |
| COC(=O)NCc1cc(C(C)=NOCC(F)(F)F)ccc1Cl [A-70] | A (No diseased area) |
| COC(=O)NCc1cc(C(C)=NOc2ccccc2)ccc1Cl [A-73] | A (No diseased area) |
| COC(=O)NCc1cc(C(C)=NOCc2ccccc2OC)ccc1Cl [A-93] | A (No diseased area) |
| COC(=O)NCc1cc(C(C)=NOCc2cccc(OC)c2)ccc1Cl [A-94] | A (No diseased area) |
| COC(=O)NCc1cc(C(C)=NOCc2ccc(OC)cc2)ccc1Cl [A-95] | A (No diseased area) |
| COC(=O)NCc1cc(C(C)=NOCc2cccc(C#N)c2)ccc1Cl [A-102] | A (No diseased area) |
| COC(=O)NCc1cc(C(C)=NOCc2ccc(C#N)cc2)ccc1Cl [A-103] | B (Diseased area of less than 5%) |
| CCON=C(CC)c1ccc(Cl)c(CNC(=O)OC)c1 [A-111] | A (No diseased area) |
| COC(=O)NCc1cc(C(C)=NOCc2cccc(OC)c2)cc(C)c1Cl [A-157] | A (No diseased area) |
| COC(=O)NCc1cc(C(C)=NOCc2ccc(OC)cc2)cc(C)c1Cl [A-158] | A (No diseased area) |
| COC(=O)NCc1cc(C(C)=NOCc2cccc(C(F)(F)F)c2)cc(C)c1Cl [A-159] | A (No diseased area) |
| COC(=O)NCc1cc(C(C)=NOCc2ccc(C(F)(F)F)cc2)cc(C)c1Cl [A-160] | B (Diseased area of less than 5%) |
| COC(=O)NCc1cc(C(C)=NOCC=C(Cl)Cl)ccc1Cl [A-185] | A (No diseased area) |
| CC=CCON=C(C)c1ccc(Cl)c(CNC(=O)OC)c1 [A-189] | A (No diseased area) |
| C=CCCON=C(C)c1ccc(Cl)c(CNC(=O)OC)c1 [A-198] | A (No diseased area) |

| SMILES | Evaluation (total diseased area of the first leaves) |
| --- | --- |
| COC(=O)NCc1cc(C(C)=NOCC=Cc2ccccc2)ccc1Cl [A-201] | A (No diseased area) |
| COC(=O)NCc1cc(C(C)=NOCc2ccccc2)ccc1Cl [A-206] | B (Diseased area of less than 5%) |
| COC(=O)NCc1cc(C(C)=NOCc2ccccc2Cl)ccc1Cl [A-207] | A (No diseased area) |
| COC(=O)NCc1cc(C(C)=NOCc2cccc(Cl)c2)ccc1Cl [A-208] | B (Diseased area of less than 5%) |
| COC(=O)NCc1cc(C(C)=NOC(C)c2ccccc2)ccc1Cl (stereo not drawn) [A-216] | A (No diseased area) |
| COC(=O)NCc1cc(C(C)=NOCc2ccccc2OC(F)(F)F)ccc1Cl [A-217] | A (No diseased area) |
| COC(=O)NCc1cc(C(C)=NOCc2cccc(OC(F)(F)F)c2)ccc1Cl [A-218] | A (No diseased area) |
| COC(=O)NCc1cc(C(C)=NOCc2ccccc2C#N)ccc1Cl [A-220] | A (No diseased area) |
| COC(=O)NCc1cc(C(C)=NOCC2OCCO2)ccc1Cl [A-241] | B (Diseased area of less than 5%) |
| COC(=O)NCc1cc(C(C)=NOCc2ccc3ccccc3c2)ccc1Cl [A-248] | B (Diseased area of less than 5%) |
| CCCCCCCON=C(C)c1ccc(Cl)c(CNC(=O)OC)c1 [A-251] | A (No diseased area) |
| COC(=O)NCc1cc(C(C)=NOCc2cccc(Cl)c2Cl)ccc1Cl [A-252] | A (No diseased area) |
| COC(=O)NCc1cc(C(C)=NOCc2cc(Cl)ccc2Cl)ccc1Cl [A-254] | A (No diseased area) |
| COC(=O)NCc1cc(C(C)=NOCc2ccc(Cl)c(Cl)c2)ccc1Cl [A-256] | A (No diseased area) |
| COC(=O)NCc1cc(C(C)=NOCc2cc(Cl)cc(Cl)c2)ccc1Cl [A-257] | A (No diseased area) |
| COC(=O)NCc1cc(C(C)=NOCc2cc(C)ccc2C)ccc1Cl [A-258] | B (Diseased area of less than 5%) |
| COC(=O)NCc1cc(C(C)=NOCc2cccc([N+](=O)[O-])c2)ccc1Cl [A-266] | B (Diseased area of less than 5%) |
| COC(=O)NCc1cc(C(C#N)=NOCCc2ccccc2)ccc1Cl [A-277] | B (Diseased area of less than 5%) |
| COC(=O)NCc1cc(C(C)=NOCc2cccc(C(=O)OC)c2)ccc1Cl [A-278] | B (Diseased area of less than 5%) |
| COC(=O)NCc1cc(C(C)=NOCc2cc(C)cc(C)c2)ccc1Cl [A-279] | B (Diseased area of less than 5%) |
| COC(=O)NCc1cc(C(C)=NOCc2cccc(Cl)n2)ccc1Cl [A-285] | A (No diseased area) |
| CCC(=NOCC(C)=NOC)c1ccc(Cl)c(CNC(=O)OC)c1 [A-293] | A (No diseased area) |
| COC(=O)NCc1cc(C(C)=NOCc2ccccc2Cl)ccc1C [A-294] | B (Diseased area of less than 5%) |
| COC(=O)NCc1cc(C(C)=NOCc2ccccc2C)ccc1C [A-295] | B (Diseased area of less than 5%) |

| SMILES | Evaluation (total diseased area of the first leaves) |
| --- | --- |
| CCC(=NOCc1ccccc1Cl)c1ccc(Cl)c(CNC(=O)OC)c1 [A-296] | A (No diseased area) |
| CCC(=NOCc1ccccc1C(F)(F)F)c1ccc(Cl)c(CNC(=O)OC)c1 [A-297] | B (Diseased area of less than 5%) |
| CCC(=NOCc1ccccc1)c1ccc(Cl)c(CNC(=O)OC)c1 [A-303] | A (No diseased area) |
| CCC(=NOCc1cccc(OC)c1)c1ccc(Cl)c(CNC(=O)OC)c1 [A-304] | A (No diseased area) |
| CCC(=NOCc1ccccn1)c1ccc(Cl)c(CNC(=O)OC)c1 [A-305] | A (No diseased area) |
| COC(=O)NCc1cc(C(C)=NOCc2ncccc2C)ccc1Cl [A-306] | A (No diseased area) |
| COC(=O)NCc1cc(C(C)=NOC(C)c2ccccc2Cl)ccc1Cl (stereo not drawn) [A-309] | B (Diseased area of less than 5%) |
| COC(=O)NCc1cc(C(C)=NOC(C)c2cccc(Cl)c2)ccc1Cl (stereo not drawn) [A-310] | A (No diseased area) |
| COC(=O)NCc1cc(C(C)=NOC(C)c2ccc(Cl)cc2)ccc1Cl (stereo not drawn) [A-311] | A (No diseased area) |
| COC(=O)NCc1cc(C(C)=NOC(C)c2cccc(OC)c2)ccc1Cl (stereo not drawn) [A-312] | A (No diseased area) |
| COC(=O)NCc1cc(C(C)=NOC(C)c2cccc(C(F)(F)F)c2)ccc1Cl (stereo not drawn) [A-313] | A (No diseased area) |
| COC(=O)NCc1cc(C(C)=NOCc2ccccc2C(F)(F)F)ccc1C [A-314] | A (No diseased area) |
| COC(=O)NCc1cc(C(C)=NOCc2cccc(OC)c2)ccc1C [A-315] | A (No diseased area) |
| COC(=O)N(Cc1cccc(OC)c1)Cc1cc(C(C)=NOCc2cccc(OC)c2)ccc1C [A-322] | A (No diseased area) |
| COC(=O)NCc1cc(C(C)=NOCc2ccccc2)ccc1F [A-323] | A (No diseased area) |
| COC(=O)NCc1cc(C(C)=NOCc2ccccc2F)ccc1F [A-324] | A (No diseased area) |
| COC(=O)NCc1cc(C(C)=NOCc2ccccc2Cl)ccc1F [A-325] | A (No diseased area) |
| COC(=O)NCc1cc(C(C)=NOCc2ccccc2Br)ccc1F [A-326] | A (No diseased area) |
| COC(=O)NCc1cc(C(C)=NOCc2ccccc2C)ccc1F [A-327] | A (No diseased area) |
| COC(=O)NCc1cc(C(C)=NOCc2ccccc2C(F)(F)F)ccc1F [A-328] | A (No diseased area) |
| COC(=O)NCc1cc(C(C)=NOCc2cccc(OC)c2)ccc1F [A-329] | A (No diseased area) |
| COC(=O)NCc1cc(C(C)=NOCc2ccccn2)ccc1F [A-330] | B (Diseased area of less than 5%) |
| COC(=O)NCc1cc(C(C)=NOCc2ccccn2)ccc1C [A-333] | A (No diseased area) |
| COC(=O)NCc1cc(C(C)=NOCc2ccc(C)cn2)ccc1Cl [A-334] | A (No diseased area) |
